Measured values taken from PMC3930709, “Selective Activation of hTRPV1 by N-Geranyl Cyclopropylcarboxamide, an Amiloride-Insensitive Salt Taste Enhancer” (PLoS ONE, 2014).
Where two headings read alike, the source gives them in different places.

What was measured:
[1] = biological target: T1, αβγ hENaC (Homo sapiens, UniProt P37088+P51168+P51170); assay: Membrane potential assay (FMP dye) on αβγ hENaC-expressing cells; type: cell-based; details: 0.03-10 µM; read-out: EC50, depolarization of membrane potential in hENaC expressing cells
T1 construct: GFP; host or cells: HEK293T
T1 sequence (P37088 1-669): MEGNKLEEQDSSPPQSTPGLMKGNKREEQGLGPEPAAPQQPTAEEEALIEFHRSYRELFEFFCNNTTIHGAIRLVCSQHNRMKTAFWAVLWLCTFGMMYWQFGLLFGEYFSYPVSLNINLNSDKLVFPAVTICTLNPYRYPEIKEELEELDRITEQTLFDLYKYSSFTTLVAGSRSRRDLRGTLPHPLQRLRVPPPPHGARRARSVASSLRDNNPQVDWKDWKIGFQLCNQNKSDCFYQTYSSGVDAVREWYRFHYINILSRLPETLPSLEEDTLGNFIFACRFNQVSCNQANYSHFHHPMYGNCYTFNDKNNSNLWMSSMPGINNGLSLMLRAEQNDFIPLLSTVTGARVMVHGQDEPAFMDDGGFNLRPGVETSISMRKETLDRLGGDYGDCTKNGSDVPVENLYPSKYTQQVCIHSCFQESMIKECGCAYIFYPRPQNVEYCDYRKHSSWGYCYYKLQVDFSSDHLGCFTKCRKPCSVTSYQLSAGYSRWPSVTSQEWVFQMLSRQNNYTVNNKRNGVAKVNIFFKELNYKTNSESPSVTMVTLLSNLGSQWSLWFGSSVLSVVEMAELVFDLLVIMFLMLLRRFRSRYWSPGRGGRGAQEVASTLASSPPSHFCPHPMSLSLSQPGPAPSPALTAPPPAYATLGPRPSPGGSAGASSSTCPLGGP
T1 sequence (P51168 1-640): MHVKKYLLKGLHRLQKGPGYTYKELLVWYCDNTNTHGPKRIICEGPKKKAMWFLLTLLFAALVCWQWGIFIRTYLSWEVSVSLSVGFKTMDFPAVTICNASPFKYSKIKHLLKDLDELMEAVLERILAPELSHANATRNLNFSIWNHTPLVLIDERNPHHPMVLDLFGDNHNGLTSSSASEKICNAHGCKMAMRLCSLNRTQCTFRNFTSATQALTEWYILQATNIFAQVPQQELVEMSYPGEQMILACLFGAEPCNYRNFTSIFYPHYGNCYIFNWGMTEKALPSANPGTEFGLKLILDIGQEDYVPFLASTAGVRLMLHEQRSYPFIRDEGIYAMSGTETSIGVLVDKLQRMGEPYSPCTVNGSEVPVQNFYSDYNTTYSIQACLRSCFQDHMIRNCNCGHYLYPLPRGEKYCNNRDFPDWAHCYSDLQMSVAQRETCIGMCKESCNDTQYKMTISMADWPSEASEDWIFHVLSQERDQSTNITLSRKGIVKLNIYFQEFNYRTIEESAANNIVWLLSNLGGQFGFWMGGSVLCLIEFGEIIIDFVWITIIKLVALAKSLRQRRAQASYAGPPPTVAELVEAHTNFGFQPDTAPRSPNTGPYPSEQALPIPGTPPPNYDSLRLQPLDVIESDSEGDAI
T1 sequence (P51170 1-649): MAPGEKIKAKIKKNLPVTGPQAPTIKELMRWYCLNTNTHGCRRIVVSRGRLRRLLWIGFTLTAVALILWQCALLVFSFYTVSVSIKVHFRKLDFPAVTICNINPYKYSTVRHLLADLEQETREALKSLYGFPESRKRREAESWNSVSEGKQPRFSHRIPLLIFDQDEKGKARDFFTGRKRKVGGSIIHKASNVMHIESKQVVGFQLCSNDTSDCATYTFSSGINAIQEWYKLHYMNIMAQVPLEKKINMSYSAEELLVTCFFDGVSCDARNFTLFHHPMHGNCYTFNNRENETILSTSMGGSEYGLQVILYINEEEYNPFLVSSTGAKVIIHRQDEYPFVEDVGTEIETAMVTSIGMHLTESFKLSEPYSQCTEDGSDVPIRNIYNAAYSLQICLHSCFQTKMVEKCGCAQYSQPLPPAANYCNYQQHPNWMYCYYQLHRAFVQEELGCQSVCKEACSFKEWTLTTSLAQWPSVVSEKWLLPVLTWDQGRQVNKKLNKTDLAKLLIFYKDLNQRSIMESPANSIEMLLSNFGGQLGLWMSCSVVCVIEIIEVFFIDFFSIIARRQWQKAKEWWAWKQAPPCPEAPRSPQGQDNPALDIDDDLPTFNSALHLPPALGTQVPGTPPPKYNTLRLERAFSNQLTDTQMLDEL
Experimental: The α, β, and γ hENaC subunits were cloned from OriGene (Rockville, MD; GenBank accession number […] for SCNN1A, NM_000336 for SCNN1B and NM_001039 for SCNN1G). α, GFP-tagged β, and γ hENaC were cloned into a CMV promoter-based vector and expressed constitutively. The HEK293T cells were seeded onto a 35 mm dish and transfected with α, β, and γ hENaC expression plasmid using Lipofectamine 2000 (Invitrogen). Then, transfected cells were seeded onto 96-well black-wall plate for 18–26 h prior to their use in an experiment.
hENaC-expressing cells were characterized using FLIPER Membrane Potential (FMP) Assay Kit (Molecular Devices Corporation, Sunnyvale, CA, USA). In this assay, changes in the membrane potential were quantified via fluorescence change caused by FMP dye. The hENaC-expressing cells were washed with assay buffer (containing: 130 mM NaCl, 10 mM glucose, 5 mM KCl, 2 mM CaCl2, 1.2 mM MgCl2, and 10 mM HEPES, pH adjusted to 7.4 with NaOH) and subsequently, FMP blue-dye in assay buffer was loaded into the cells at room temperature for 30 min. After dye treatment, S3969 (0.03−10 µM), an ENaC agonist, S3969+Bz (ENaC antagonist, 0.01 µM), or NGCC (0.01−10 µM) was treated to hENaC-expressing cells. The plate was assayed in a FlexStation III plate reader (Molecular devices Corporation) by excitation at 530 nm and measuring the emission at 560 nm.

[2] = biological target: T1, αβγ hENaC; parameters: method as in PMID 18326490; details: read-out: EC50 of S3969 obtained by patch-clamp; cited from earlier work
[3] = tested on: human δβγ ENaC; parameters: method as in PMID 18326490; details: cited from earlier work
[4] = tested on: lingual surface potential to salt stimuli; parameters: method as in PMID 12736236, PMID 16809639; details: amiloride 100 µM, humans, gustometer; cited from earlier work
[5] = tested on: human αβγ ENaC; parameters: method as in PMID 18326490; details: cited from earlier work
[6] = tested on: chorda tympani (CT) taste nerve response to NaCl; parameters: method as in PMID 12736236, PMID 16809639; details: cited from earlier work

Row | EC50 [1] [nM] | SMILES | EC50 [2] [nM] | IC50 [3] [nM] | reduction of lingual surface potential to salt stimuli [4] | IC50 [5] [nM] | inhibition of chorda tympani (CT) taste nerve response to NaCl [6]
1 | 1260 ± 290 | Cc1cccc2[nH]cc(SC(CC(C)C)C(=O)NCCO)c12 (stereo not drawn) [S3969] | 1200 ± 100 | – | – | – | –
2 | – | N=C(N)NC(=O)c1nc(Cl)c(N)nc1N [amiloride] | – | ~2700 | 5–40% | ~110 | about 70%
